Measurements from US12404304B1, “Telomerase reverse transcriptase (TERT) expression enhancing compounds and methods for using the same” (Sierra Sciences, LLC, priority 2007, dated 2025).
Like-named read-outs stand apart in the source and are kept apart here.

What was measured:
[1] = tested on: human TERT expression (hTERT mRNA); test: Quantitative real-time RT-PCR of hTERT mRNA expression (Ct, transcripts) in compound-treated cells; format: cell-based
Excerpt: Telomerase is a ribonucleoprotein complex composed of the catalytic protein subunit (human telomerase reverse transcriptase or hTERT) and the RNA template. hTERT expression level can be measured by PCR.
Briefly, amplification of the target sequence is monitored per PCR cycle by detecting the fluorescence signal emitted by an internal probe that is degraded by the 5′ nuclease activity of the Taq polymerase. The emission signal accumulates in each sample, and the Ct required to reach a given fluorescence threshold is determined (Ct stands for Cycle Threshold and is a measure of the number of PCR cycles that are required to amplify a target—thus, a lower Ct score means that there is more abundant hTERT mRNA). Thus, the Ct value of a sample inversely correlates to the quantity of the starting cDNA which correlates to the number of mRNA transcripts. Using the cDNA of known quantity, a standard curve can be generated and used to determine the starting amount of mRNA transcripts based on the […] of each sample.
Quantitative real-time PCR can be done on cDNA from test compound-treated and nontreated cells by use of a ABI Prism 7900 Sequence Detection System (PE Applied Biosystems, Foster City, CA) following the Assays-on-Demand protocol (PE Applied Biosystems, Foster City, CA). Quantitative data can be analyzed using the Sequence Detection System software version 2.1 (PE Applied Biosystems).
The following compounds were tested in assays designed to identify compounds that enhance human TERT expression.

viable cells in culture = test: Cell viability assay (CellTiter-Glo Luminescent Cell Viability Assay, ATP quantitation, percent of vehicle control)

Row | SMILES | Average Number of hTERT Transcripts [1] | Average Cell Viability after 24 Hours (% DMSO) (viable cells in culture) | Average Number of hTERT Transcripts ([1]; quantitative real-time RT-PCR)
1 | CN(CC1CCCO1)S(=O)(=O)c1ccc(C(=O)Nc2nc(-c3ccccn3)cs2)cc1 (stereo not shown) [compound 1510] | 76.03 | 83.99 | –
2 | O=C1CC(CSc2nnnn2-c2ccccc2)=NN1c1nc2ccccc2[nH]1 [compound 1119] | – | 62.38 | 125.15
3 | COc1ccc(OC)c(N(C(=O)Cc2ccccc2)c2nc(-c3ccc(C)cc3)c(C)s2)c1 [compound 1416] | 15.42 | 95.26 | –
4 | O=C(NCc1nccs1)c1cc(-c2cccs2)on1 [compound 1499] | 17.01 | 119.54 | –
5 | COC(=O)C1=C(C)Nc2nnnn2C1c1ccccc1OC (stereo not shown) [compound 1321] | – | 124.73 | 22.30
6 | Cc1ccc(C)c(OCC(=O)Nc2cc(Cl)c(Cl)cc2Cl)c1 [compound 1390] | 4.81 | 106.51 | –
7 | COC(=O)COc1ccc(S(=O)(=O)N(C)Cc2ccccc2)cc1 [compound 1415] | 30.51 | 79.96 | –
8 | CCCCN1C(C(=O)c2ccccc2)=C(OC(=O)C(C)C)c2ccccc2S1(=O)=O [compound 1217] | – | 45.00 | 10.04
9 | CC1=NN(c2nc3ccccc3s2)C(=O)C1CCC(C)C (stereo not shown) [compound 1109] | – | 67.53 | 35.79
10 | COc1ccc(Br)cc1CNC(=O)Cn1ncc2c(=O)oc3ccccc3c21 [compound 1328] | – | 71.81 | 5.42
11 | O=C(N/N=C/c1cc(Br)ccc1O)c1cc2ccccc2cc1O [compound 1269] | – | 68.44 | 93.93
12 | O=c1c2c([nH]c3c(-c4ccc(Cl)cc4)cnn13)CCCC2 [compound 1159] | – | 55.24 | 5.22
13 | CC(C)(C)c1ccc(C(=O)N/N=C/c2c(O)ccc3ccccc23)cc1 [compound 1270] | – | 59.66 | 34.64
14 | O=C(Nc1ccc(OC(F)(F)C(F)F)cc1)c1ccccc1O [compound 1386] | 11.93 | 30.71 | –
15 | O=C1CC(N2CCN(Cc3ccc(Cl)cc3)CC2)C(=O)N1c1ccccc1 (stereo not shown) [compound 1313] | – | 112.79 | 7.45
16 | COc1cccc(C=NNC(=O)C(C)Nc2cccc3ccccc23)c1O (stereo not shown) [compound 1279] | – | 63.90 | 25.71
17 | CCC(=O)Nc1c(Br)cc(C)cc1C(=O)O [compound 1371] | 5.46 | 105.87 | –
18 | CC1=C(C(=O)OC2CCCC2)C(c2ccc(Br)cc2)C2=C(CC(C)(C)CC2=O)N1 (stereo not shown) [compound 1247] | – | 95.77 | 74.16
19 | COc1cc([C@@H]2c3cc4c(cc3C(OC3O[C@@H]5COC(C)O[C@H]5[C@H](O)[C@H]3O)C3COC(=O)[C@@H]32)OCO4)cc(OC)c1O (stereo partly shown) [compound 1224] | – | – | 89.52
20 | CCC(=O)NC(c1ccc(OC)c(OC)c1)c1cc(Cl)c2cccnc2c1O (stereo not shown) [compound 1032] | – | 75.67 | –
21 | CCC(=O)NC(c1ccccc1OC)c1cc(Cl)c2cccnc2c1O (stereo not shown) [compound 1043] | – | 47.47 | –
22 | CCCOCc1cc(CN2CCCCC2)c(O)c2ncccc12 [compound 1100] | – | 56.10 | –
23 | CCC(=O)NC(c1ccco1)c1cc(Cl)c2cccnc2c1O (stereo not shown) [compound 1039] | – | 72.76 | –

Row | SMILES | Average Number of hTERT Transcripts [1] | Average Cell Viability after 24 Hours (% DMSO) (viable cells in culture) | Average Number of hTERT Transcripts ([1]; quantitative real-time RT-PCR)
24 | Oc1ccc(CN2CCN(c3cccc(Cl)c3)CC2)c2cccnc12 [compound 1482] | – | 80.49 | –
25 | Cc1ccc(S(=O)(=O)Nc2cc(S(=O)(=O)c3ccc(C)cc3)c(O)c3ncccc23)cc1 [compound 1093] | – | 66.50 | –
26 | COc1cc(C(Nc2ccccn2)c2ccc3cccnc3c2O)cc(Br)c1OC (stereo not shown) [compound 1005] | – | 64.80 | –
27 | Oc1c(C(Nc2ccccn2)c2ccccc2Br)ccc2cccnc12 (stereo not shown) [compound 1007] | – | 68.00 | –
28 | CC(=O)NC(c1cccs1)c1cc(Cl)c2cccnc2c1O (stereo not shown) [compound 1052] | – | 60.80 | –
29 | Cc1ccnc(NC(c2cccc(Cl)c2)c2ccc3ccc(C)nc3c2O)c1 (stereo not shown) [compound 1080] | – | 72.44 | –
30 | CC(C)C(=O)NC(c1ccc2c(c1)OCO2)c1cc([N+](=O)[O-])c2cccnc2c1O (stereo not shown) [compound 1064] | – | 67.37 | –
31 | CCCC(=O)NC(c1ccco1)c1cc(Cl)c2cccnc2c1O (stereo not shown) [compound 1077] | – | 38.99 | –
32 | Oc1c(Cl)cc(Cl)c2cccnc12 [compound 1020] | – | 25.10 | –
33 | O=C(CCc1ccccc1)NC(c1ccc(Cl)cc1)c1ccc2cccnc2c1O (stereo not shown) [compound 1478] | – | 72.44 | –
34 | CC(=O)NC(c1ccco1)c1cc([N+](=O)[O-])c2cccnc2c1O (stereo not shown) [compound 1034] | – | 83.39 | –
35 | CCC(=O)NC(c1ccc(N(C)C)cc1)c1ccc2cccnc2c1O (stereo not shown) [compound 1001] | – | 44.55 | –
36 | CC(=O)NC(c1ccc(C(C)C)cc1)c1ccc2cccnc2c1O (stereo not shown) [compound 1030] | – | 73.78 | –
37 | CCCCC(=O)NC(c1ccc(OC)c(OC)c1)c1cc([N+](=O)[O-])c2cccnc2c1O (stereo not shown) [compound 1053] | – | 59.77 | –
38 | COc1cccc(C(=O)NC(c2ccc(OC)c(OC)c2)c2cc(Cl)c3cccnc3c2O)c1 (stereo not shown) [compound 1013] | – | 74.96 | –
39 | CC(=O)NC(c1ccc(Cl)cc1)c1cc([N+](=O)[O-])c2cccnc2c1O (stereo not shown) [compound 1037] | – | 67.96 | –
40 | CC(=O)NC(c1cccs1)c1ccc2cccnc2c1O (stereo not shown) [compound 1058] | – | 69.11 | –
41 | COCc1cc(CN2CCCC2)c(O)c2ncccc12 [compound 1097] | – | 78.08 | –
42 | CCC(=O)NC(/C=C/c1ccccc1)c1cc([N+](=O)[O-])c2cccnc2c1O (stereo not shown) [compound 1035] | – | 62.45 | –
43 | CCN(CC)c1ccc(C(NC(=O)C(C)C)c2ccc3cccnc3c2O)cc1 (stereo not shown) [compound 1060] | – | 63.44 | –
44 | CCCC(=O)NC(c1ccc(N(CC)CC)cc1)c1cc(Cl)c2cccnc2c1O (stereo not shown) [compound 1070] | – | 69.71 | –
45 | COc1ccc(C(NC(=O)C(C)C)c2cc([N+](=O)[O-])c3cccnc3c2O)cc1OC (stereo not shown) [compound 1481] | – | 78.30 | –
46 | Cc1ccc2c(I)cc(I)c(O)c2n1 [compound 1105] | – | 58.63 | –
